ChEMBL document CHEMBL4422610, “HDAC as onco target: Reviewing the synthetic approaches with SAR study of their inhibitors” (Eur J Med Chem, 2018)

What was measured:
Histone deacetylase 3 = Histone deacetylase 3 (Homo sapiens, UniProt O15379); test: Inhibition of human HDAC3 using fluorogenic HDAC substrate
[1] = target: T1, Protein deacetylase HDAC6 (Homo sapiens, UniProt Q9UBN7); test: Inhibition of human HDAC6 using fluorogenic HDAC substrate
T1 sequence (Q9UBN7 whole entry): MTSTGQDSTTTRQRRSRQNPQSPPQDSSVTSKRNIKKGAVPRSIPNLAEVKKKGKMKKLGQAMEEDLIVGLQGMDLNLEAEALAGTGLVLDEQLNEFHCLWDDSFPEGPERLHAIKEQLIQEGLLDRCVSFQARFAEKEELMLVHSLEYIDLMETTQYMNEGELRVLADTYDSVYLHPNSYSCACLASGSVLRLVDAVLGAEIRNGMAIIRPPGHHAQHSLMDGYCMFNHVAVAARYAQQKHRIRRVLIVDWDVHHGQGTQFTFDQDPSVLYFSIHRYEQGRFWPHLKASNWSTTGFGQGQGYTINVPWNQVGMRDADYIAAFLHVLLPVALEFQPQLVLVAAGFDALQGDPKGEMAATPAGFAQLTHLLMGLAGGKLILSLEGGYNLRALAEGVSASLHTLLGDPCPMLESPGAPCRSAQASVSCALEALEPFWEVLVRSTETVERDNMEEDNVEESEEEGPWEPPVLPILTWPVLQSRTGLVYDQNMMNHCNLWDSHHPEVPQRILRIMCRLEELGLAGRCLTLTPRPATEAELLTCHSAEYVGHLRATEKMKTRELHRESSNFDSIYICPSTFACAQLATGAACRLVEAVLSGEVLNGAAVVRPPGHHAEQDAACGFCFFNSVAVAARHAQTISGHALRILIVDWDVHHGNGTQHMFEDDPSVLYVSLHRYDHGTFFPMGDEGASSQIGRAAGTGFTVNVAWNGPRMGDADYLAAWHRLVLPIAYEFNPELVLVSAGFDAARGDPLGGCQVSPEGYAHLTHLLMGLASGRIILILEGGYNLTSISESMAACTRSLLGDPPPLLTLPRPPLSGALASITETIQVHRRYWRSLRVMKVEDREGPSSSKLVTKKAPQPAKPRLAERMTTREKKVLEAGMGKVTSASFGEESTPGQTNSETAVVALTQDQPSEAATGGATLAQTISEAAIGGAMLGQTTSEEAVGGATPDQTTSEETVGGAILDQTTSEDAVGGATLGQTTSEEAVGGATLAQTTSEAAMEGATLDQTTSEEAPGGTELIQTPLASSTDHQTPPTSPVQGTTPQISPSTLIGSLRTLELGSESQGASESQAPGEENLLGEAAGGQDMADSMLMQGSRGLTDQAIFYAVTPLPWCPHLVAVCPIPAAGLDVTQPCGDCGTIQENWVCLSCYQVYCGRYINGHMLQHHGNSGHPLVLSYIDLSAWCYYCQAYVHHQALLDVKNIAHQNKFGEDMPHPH

[2] = target: T2, Polyamine deacetylase HDAC10 (Homo sapiens, UniProt Q969S8); test: Inhibition of human HDAC10 using fluorogenic HDAC substrate
T2 sequence (Q969S8 whole entry): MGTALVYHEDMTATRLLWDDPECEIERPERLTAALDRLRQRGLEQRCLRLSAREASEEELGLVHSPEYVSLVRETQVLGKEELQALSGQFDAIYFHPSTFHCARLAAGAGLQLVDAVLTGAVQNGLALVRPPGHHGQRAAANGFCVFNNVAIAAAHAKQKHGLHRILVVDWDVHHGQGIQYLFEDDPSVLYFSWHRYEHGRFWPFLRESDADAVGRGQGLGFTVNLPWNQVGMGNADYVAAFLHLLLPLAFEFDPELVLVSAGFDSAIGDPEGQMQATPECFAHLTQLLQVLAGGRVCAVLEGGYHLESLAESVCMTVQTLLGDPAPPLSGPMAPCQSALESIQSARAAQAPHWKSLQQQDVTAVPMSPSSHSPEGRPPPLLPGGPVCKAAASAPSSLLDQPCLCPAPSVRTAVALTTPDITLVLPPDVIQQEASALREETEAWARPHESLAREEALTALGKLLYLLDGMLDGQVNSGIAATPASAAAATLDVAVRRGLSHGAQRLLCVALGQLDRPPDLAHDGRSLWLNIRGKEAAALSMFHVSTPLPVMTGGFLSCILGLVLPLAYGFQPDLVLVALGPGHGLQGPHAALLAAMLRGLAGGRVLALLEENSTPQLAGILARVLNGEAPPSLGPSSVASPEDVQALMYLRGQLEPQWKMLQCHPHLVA

Histone deacetylase 11 = target: T3, Histone deacetylase 11 (Homo sapiens, UniProt Q96DB2); test: Inhibition of human HDAC11 using fluorogenic HDAC substrate
T3 sequence (Q96DB2 whole entry): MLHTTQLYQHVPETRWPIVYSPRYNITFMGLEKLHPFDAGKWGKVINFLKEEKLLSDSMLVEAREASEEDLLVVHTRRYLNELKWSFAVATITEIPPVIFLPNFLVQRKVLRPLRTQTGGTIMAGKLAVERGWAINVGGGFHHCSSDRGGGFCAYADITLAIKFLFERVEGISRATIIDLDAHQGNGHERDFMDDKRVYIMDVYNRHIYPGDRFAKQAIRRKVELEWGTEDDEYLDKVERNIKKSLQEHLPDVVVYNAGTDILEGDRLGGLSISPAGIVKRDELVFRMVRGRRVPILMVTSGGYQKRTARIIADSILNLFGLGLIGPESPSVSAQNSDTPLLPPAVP

Chain of Histone deacetylase 3 (O15379 whole entry): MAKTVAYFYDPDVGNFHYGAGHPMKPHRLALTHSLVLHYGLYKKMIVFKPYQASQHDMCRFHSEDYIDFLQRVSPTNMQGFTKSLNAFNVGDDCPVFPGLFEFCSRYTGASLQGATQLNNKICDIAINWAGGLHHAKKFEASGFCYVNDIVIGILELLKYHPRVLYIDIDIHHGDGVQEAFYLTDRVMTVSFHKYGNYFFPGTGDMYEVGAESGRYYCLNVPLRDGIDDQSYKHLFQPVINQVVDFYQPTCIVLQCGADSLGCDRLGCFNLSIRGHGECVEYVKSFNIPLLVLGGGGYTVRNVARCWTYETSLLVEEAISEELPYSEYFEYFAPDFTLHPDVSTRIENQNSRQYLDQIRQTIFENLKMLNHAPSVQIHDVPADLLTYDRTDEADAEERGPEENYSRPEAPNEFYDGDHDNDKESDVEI

IC50 (Histone deacetylase 3): > 30000 nM | IC50 [1]: 6 nM | IC50 [2]: 14000 nM | IC50 (Histone deacetylase 11): 540 nM
SMILES: O=C(NO)c1ccc(CN2c3ccccc3CC[C@@H]3CCCC[C@H]32)cc1
